Measured values reported in US11597717B2, “Substituted imidazoles as PLXDC2 ligands” (Landos Biopharma, Inc., priority 2020, dated 2023).

Key:
CD4+ T cells = assay: Immunological screening in vitro in CD4+ T cells (flow cytometry); format: cell-based, C57BL/6 mice; conditions: for significance of change in IFNγ/TNFα production relative to vehicle treated control: tested at 100 nM and 1 μM, P<0.05; for reduction in IFNγ production: 24 h, anti-CD3/CD28, PMA/ionomycin last 6 h
Excerpt: (§1) Cell culture. Spleens were excised from C57BL/6 mice. Spleens were crushed between the frosted ends of microscope slides and filtered to provide a cellular suspension. Red blood cells were lysed through hypotonic lysis. Remaining cells were washed and filtered. CD4+ T cells were enriched within the suspension using magnetic sorting based negative selection. Cells were collected and plated within 96 well plates coated with anti-CD3/CD28 and cultured in the presence of PX-02, PX-04, PX-07, PX-08 and PX-09 at 0, 0.1 or 1 micromolar for 24 h. During the last 6 h of culture, cells were stimulated with phorbol 12-myristate-13-acetate (PMA) and ionomycin.
(§2) Immunological analysis. Cells were collected from 96 well plates and stained with a cocktail of antibodies for immunophenotyping by flow cytometry. Culture supernatant was collected and assayed for cytokine concentrations by cytometric bead array. Data was captured on a BD FACS Celesta and analyzed using FACSDiva.

[1] = test system: DBA/2 mice injected with STZ; assay: STZ model of diabetic nephropathy; format: in vivo; conditions: daily oral gavage; for albumin/creatinine ratio in urine: 12 weeks of treatment
Method: STZ models. Streptozotocin (STZ) can be used to induce diabetes in both rats and mice. Mice were used for the assessment of nephropathy. DBA/2 mice were injected with 40 mg/kg STZ by intraperitoneal injection for 5 consecutive days. Mice were randomized to vehicle- or PX-04-treated arms after confirmation of diabetes on day 10 (n=12). PX-04 was administered daily for 12 weeks by oral gavage after a damage accrual stage. Separately, mice were randomized to vehicle- or PX-07-treated arms after confirmation of diabetes on day 10 (n=8). PX-07 was administered daily for 12 weeks by oral gavage after a damage accrual stage.
Kidney function. Kidney function was assessed by collection of urine and histological assessment of kidneys. Urine was assayed for albumin/creatinine ratio. Kidneys were scored using a composite scoring method (0-9) encompassing glomerular area, mesangial expansion, and renal fibrosis.

[2] = test system: rats with collagen-induced arthritis; assay: Collagen-induced arthritis in rats; format: in vivo, Lewis rats
Method: (§3) Models. Six-week-old C57Bl/6 mice were immunized with 200 μg of chicken collagen emulsified in complete Freund's adjuvant by intradermal injections at the base of the tail (n=8). Mice were treated with 5 mg/kg of PX-07 or vehicle daily for four weeks. Five- to six-week-old Lewis rats (n=8) were immunized with 200 μg of bovine collagen emulsified in incomplete Freund's adjuvant by intradermal injection into the base of the tail. A second boosting immunization was given after one week. PX-04 was administered daily at 2 or 20 mg/kg for 3 weeks.
(§4) Immunological analysis. Spleens were excised from mice and inguinal lymph nodes were excised from rats. Tissues were crushed and filtered to provide a cellular suspension. Red blood cells were lysed. Cells were labeled with mixtures of extracellular (CD45, CD3, CD4, CD8, B220, CD19, CD138, CD21, CD24, CD1d, CD11b, CD86, CD80) and intracellular (BCL6, IL21, IL10, TNF) antibodies in a sequential live staining in 96-well plates in preparation for flow cytometry. Data was captured on a BD FACS Celesta and analyzed using FACSDiva.

NZB/W F1 mice = assay: NZB/W F1 model of SLE; format: in vivo; conditions: 10 mg/kg daily oral
Method: NZB/W F1 model. Twenty-four-week-old, female NZB/W F1 mice were randomized into vehicle or PX-04 treated arms based on baseline urine protein levels (n ═10). PX-04 was administered daily at 10 mg/kg for 12 weeks. Mice will be weighed on a weekly basis to update dosage formulation. Dosage will be calculated based off mean body weights.
Immunological analysis. Urine was collected for assay for protein content to test for kidney function at baseline, 6, and 12 weeks of treatment. Spleens were excised, crushed and filtered to provide a cellular suspension. Red blood cells were lysed. Cells were labeled with mixtures of extracellular (CD45, CD3, CD4) and intracellular (IL10) antibodies in a sequential live staining in 96-well plates in preparation for flow cytometry. Data was captured on a BD FACS Celesta and analyzed using FACSDiva.

[3] = test system: bone marrow-derived macrophages (BMDMs); assay: Immunological screening in vitro in LPS-challenged bone marrow-derived macrophages (qRT-PCR, Luminex); format: cell-based, C57BL/6 mice; conditions: 0.1 and 1 micromolar, dose dependent; for IFNγ in the supernatant / IL-6 in the supernatant / TNF in the supernatant / concentration of IL-10 in the supernatant: Luminex, LPS 6 h; for IL-10 expression by RNA / expression of TNF by RNA: qRT-PCR, LPS 2 h
Method: Cell culture. Bone marrow was flushed from the femur and tibia of C57BL/6 mice. Bone marrow was then resuspended and filtered to provide a cellular suspension. Red blood cells were lysed through hypotonic lysis. Remaining cells were washed and filtered. Isolated cells were incubated in the presence of M-CSF for 7 days to differentiate cells into macrophages. Cells were harvested, plated within 24 well plates and cultured in the presence of PX-04 or PX-07 at 0, 0.1 or 1 micromolar for 12 h. During the last 2-6 h of culture, cells were stimulated with lipopolysaccharide. After stimulation for 2 h, cells were collected for the isolation of RNA. Gene expression was quantified by qRT-PCR. After stimulation for 6 h, supernatant was collected for detection of cytokines by Luminex.

mice challenged with DSS = assay: DSS model of colitis (acute IBD model); format: in vivo
Method: DSS model. Mice were given DSS in drinking water for seven days to induce disruption of the epithelial layer. At project initiation, mice were 8 weeks of age and began dosing 24 hours after being placed on DSS. Mice were weighed and scored daily for symptoms of disease (diarrhea, rectal bleeding, rectal inflammation, overall behavior). PX-04 was prepared within a 0.5% methylcellulose (12-15 cP) solution. Dosage used was 20 mg/kg delivered once daily. Dosage was calculated based off mean body weights for each gender. Oral dosage was delivered by orogastric gavage of dosage in 0.2 mL volume. Flow Cytometry. Colons were collected into RPMI/FBS buffer containing collagenase (300 U/mL) and DNase (50 U/mL) for digestion. Tissues were digested for 60 minutes under stirring at 37° C. Resultant cellular suspensions were filtered through 100 μm strainers, centrifuged (300×g, 8 min), and washed in fresh RPMI. Following filtration of the resulting single cell suspensions, immune cells were purified by Percoll gradient of cell-containing 40% Percoll overlayed onto 70% Percoll solution. After centrifugation, interphase was collected and washed to obtain enriched colonic lamina propria cell fractions. Cells were labeled with mixtures of extracellular (CD45, CD3, CD4, CD8, CD19, NK1.1, CD25, F4/80, CD11b, Gr1, CX3CR1, CD64) and intracellular (Tbet, RORγT, FOXP3, IFNγ, IL17, IL10) antibodies in a sequential live staining in 96-well plates. Data was acquired using a FACS Celesta flow cytometer with FACSDiva software.

[4] = test system: CD4+ T cells deficient in PLXDC2; assay: Specificity test in PLXDC2 deficient CD4+ T cells; format: cell-based; conditions: 100 nM or 1 μM; for IFNγ in the absence of PLXDC2: FIG. 4A; for TNFα in the absence of PLXDC2: FIG. 4B
Method: FIGS. 4A and 4B. Immunological validation of PX-04 and PX-07 specificity in CD4+ T cells. Percentages of IFNγ+(FIG. 4A) and TNFα+ (FIG. 4B) CD4+ T cells deficient in PLXDC2 were measured by flow cytometry after in vitro treatment of cells with PX compounds at concentrations of 0.1 and 1 micromolar. Statistical significance (P<0.05) is marked by asterisks.
as §1, §2
To determine the specificity of response to the PLXDC2 receptor, PX-04 and PX-07 were tested further in PLXDC2 deficient cells.

[5] = test system: mice with collagen-induced arthritis; assay: Collagen-induced arthritis in mice; format: in vivo, C57Bl/6 mice; conditions: 5 mg/kg daily oral, four weeks
Method: as §3, §4

[6] = 2 and 20 mg/kg daily oral, 3 weeks, relative to vehicle
[7] = 20 mg/kg oral, colonic lamina propria, day 7

Compound	significance of change in IFNγ/TNFα production relative to vehicle treated control (CD4+ T cells)	reduction in IFNγ production (CD4+ T cells; 100 nM)	reduction in IFNγ production (CD4+ T cells; 1 μM)	albumin/creatinine ratio in urine [1]	IFNγ in the supernatant [3]	IL-6 in the supernatant [3]	TNF in the supernatant [3]	concentration of IL-10 in the supernatant [3]	IL-10 expression by RNA [3]	expression of TNF by RNA [3]	IFNγ in the absence of PLXDC2 [4]	TNFα in the absence of PLXDC2 [4]	further results
O=C(Nc1ccccc1)c1nc(-c2cccc(Oc3ccccc3)c2)c[nH]1 [PX-02, N-Phenyl-4-(m-phenoxyphenyl)-1H-imidazole-2-carboxamide]	only induced significant changes at 1 μM												
O=C(Nc1ccc2c(c1)COC2)c1ncc(-c2cccc(Oc3ccccc3)c2)[nH]1 [PX-04, N-(1,3-Dihydro-5-isobenzofuranyl)-5-(m-phenoxyphenyl)-1H-imidazole-2-carboxamide]	significant decrease at both tested concentrations	~55%	~80%	significantly reduced	greatly suppressed	greatly suppressed	greatly suppressed	higher	slight increase	inhibited	no difference from vehicle	no difference from vehicle	histological severity of disease in hind ankles (joint space, cartilage erosion, leukocytic infiltration, angiogenesis) ([2]; 2 mg/kg oral, relative to vehicle): reduced severity of disease; gene expression of CXCL1 within the synovium [2, 6]: reduced; gene expression of IL-1β within the synovium [2, 6]: reduced; gene expression of IL-6 within the synovium [2, 6]: reduced; ratio of TNF+ to IL10+ cells within CD4+ T cell fraction, inguinal lymph node ([2]; daily oral gavage, 3 weeks): decreased; ratio of TNF+ to IL10+ cells within myeloid cell fraction, inguinal lymph node ([2]; daily oral gavage, 3 weeks): decreased; proportion of splenic CD4+IL10+ T cells relative to vehicle-treated mice (NZB/W F1 mice; after 12 weeks): increased proportion; proteinuria relative to baseline on average (NZB/W F1 mice; at 12 weeks of treatment): slight improvement; proteinuria grade (NZB/W F1 mice; over 12 weeks): protected mice from the worsening; cumulative disease activity (mice challenged with DSS; 20 mg/kg once daily oral gavage, 7 days of DSS): decreased; Th17 cells in the colon (mice challenged with DSS; [7]): greatly decreased; proportion of CD4+ T cells with IFNγ production (mice challenged with DSS; [7]): lower proportion; proportion of NK cells with IFNγ production (mice challenged with DSS; [7]): lower proportion; proportion of TNF producing dendritic cells (mice challenged with DSS; [7]): decreased; regulatory CD4+ T cells in the colon (mice challenged with DSS; [7]): slight increase
Cn1cccc(NC(=O)c2ncc(-c3cccc(Oc4ccccc4)c3)[nH]2)c1=O [PX-07, N-(1-Methyl-2-oxo-1H-pyrid-3-yl)-5-(m-phenoxyphenyl)-1H-imidazole-2-carboxamide]	significant decrease at both tested concentrations	~55%	~80%	significantly reduced	greatly suppressed	greatly suppressed	greatly suppressed	higher	slight increase	inhibited	no difference from vehicle	no difference from vehicle	proportion of CD1d+T2-MZP B cells in the spleen [5]: increased; proportion of T follicular helper cells (CD4+IL21+BCL6+) in the spleen [5]: decreased; histological score of kidney damage (composite 0-9) ([1]; after 12 weeks of treatment): significantly reduced
O=C(Nc1ccc[nH]c1=O)c1ncc(-c2cccc(Oc3ccccc3)c2)[nH]1 [PX-08, N-(2-Oxo-1H-pyrid-3-yl)-5-(m-phenoxyphenyl)-1H-imidazole-2-carboxamide]	significant decrease at both tested concentrations												
O=C(O)c1cccc(NC(=O)c2ncc(-c3cccc(Oc4ccccc4)c3)[nH]2)c1 [PX-09, m-[5-(m-Phenoxyphenyl)-1H-imidazol-2-ylcarbonylamino]benzoic acid]	significant decrease at both tested concentrations												
